Data: patent US4297346A, “Pseudopeptides used as medicaments” (priority 1976, dated 1981)

Columns and labels:
serotonin = conditions: 4-nitro-amphetamine: in 4 hours, still perceptive two weeks later; cited from earlier work
tryptophane hydroxylase = conditions: 4-nitro-amphetamine: in 4 hours, still perceptive two weeks later; cited from earlier work
mouse [1] = assay: Jumping effects with L-DOPA in mice which have received d-amphetamine; format: in vivo; conditions: for jumping effects (in words): counted for 90 minutes, L-DOPA 100 mg/kg intraperitoneally
Procedure: (§1) The different tests which are carried out on mice by the known techniques comprise:
the jerking movements with L-DOPA.
(4) Jumping effects with L-DOPA

mouse [2] = assay: Potentialisation of the group toxicity to amphetamine; format: in vivo
Procedure: as §1
the potentialisation of the group toxicity to amphetamine,
(3) Group toxicity in respect of amphetamine

mouse [3] = assay: Anti-reserpine action (interaction with reserpine); format: in vivo
Procedure: as §1
the anti-reserpine action,
(2) Interaction with reserpine

mouse [4] = assay: Action on the rectal temperature of the mouse (pGlu-His-dopamine); format: in vivo
Procedure: as §1
the action on the rectal temperature of the mouse,
(1) Action on the rectal temperature

[5] = Potentialisation of the toxicity of amphetamine by TRH; format: in vivo
rat = assay: Induction of stereotype movements in the rat; format: in vivo
Procedure: induction of stereotypes in the rat,
(§2) A comparison of these three substances, pGlu-Amph, pGlu-His-Amph and pGlu-His-Pro-Amph, with amphetamine, has been able to be carried out as follows; for this purpose, the products were administered systematically by intraperitoneal route and by oral route, it being possible for this latter procedure to verify the generally admitted assertion of a gastric hydrolysis of peptides; in this case, the action of the amphetamine should be integrally re-established.
B--Induction of stereotype movements

mouse [6] = assay: Action on the rectal temperature in the mouse (amphetamic pseudopeptides); format: in vivo; conditions: for dose causing a hypothermia 30 minutes after injection: small doses
Procedure: action on the rectal temperature in the mouse.
as §2
A--Action on the rectal temperature in respect of the mouse

mouse [7] = assay: Study of the toxicity in the mouse; format: in vivo
Procedure: study of the toxicity in the mouse.
as §2

[8] = in vivo
[9] = intraperitoneal route, 400 mg/kg
[10] = intraperitoneal route, 600 mg/kg

CC(N)Cc1ccc(N)cc1 (centres unmarked) [4-amino-amphetamine, p-amino-amphetamine]
effect on the amount of serotonin (serotonin): increase in the amount of serotonin | effect on the activity of the tryptophane hydroxylase (tryptophane hydroxylase): not modified to any appreciable degree

CC(N)Cc1ccc([N+](=O)[O-])cc1 (centres unmarked) [4-nitro-amphetamine, p-nitro-amphetamine]
effect on the amount of serotonin (serotonin): depletion of serotonin | effect on the activity of the tryptophane hydroxylase (tryptophane hydroxylase): decrease in the activity of the tryptophane hydroxylase

NCCc1ccc(O)c(O)c1 [Dopamine, dopamine]
jumping effects (in words) (mouse [1]): no jumping effects are produced | time after the injection of amphetamine at which the effect is developed (mouse [2]): about 20 minutes | effect on the reserpine fall in temperature (mouse [3]): small effect | effect on reserpine ptosis (mouse [3]; effect not lasting): completely counteracts ptosis | action on the rectal temperature (in words) (mouse [4]): hypothermal action, but the amplitude thereof is much smaller

N[C@@H](Cc1ccc(O)c(O)c1)C(=O)O [L-DOPA]
jumping effects (in words) (mouse [1]): numerous jumping actions | behavioural effect in amphetamine group toxicity test (in words) (mouse [2]): extreme agitation | action on the effects of reserpine (temperature, ptosis) (mouse [3]; 400 mg/kg intraperitoneally): antagonises the effects of the reserpine on the temperature and the dropping of the eyelids | action on the effects of reserpine (mouse [3]; oral administration, same dosage (400 mg/kg)): not found | action on the rectal temperature (in words) (mouse [4]): hypothermia

NC(=O)[C@@H]1CCCN1C(=O)[C@H](Cc1cnc[nH]1)NC(=O)[C@@H]1CCC(=O)N1 [TRH, pGlu-His-Pro-NH2]
effect on the toxicity of amphetamine ([5]; 25 mg/kg, subcutaneous application): potentialises the toxicity of the amphetamine

CC(N)Cc1ccccc1 (centres unmarked) [amphetamine, reference compound]
dosage at which the maximum amplitude of stereotype movements is achieved (rat; intraperitoneal route): 10 mg/kg | induction of stereotype movements (in words) (rat; intraperitoneal route): causes stereotype movements | duration of the stereotype movements (rat; intraperitoneal route, 10 mg/kg): ≤ 5 h | induction of stereotype movements (in words) (rat; oral route): less significant intensity and of slightly longer duration than by the intraperitoneal route | dose from which a hyperthermia appears (mouse [6]; intraperitoneal route): ≥ 4 mg/kg | time after which the temperature of the treated animals is again that of the controls (mouse [6]; intraperitoneal route): 2 h | time of the maximum of the hyperthermia (mouse [6]; intraperitoneal route): 30 min | dose causing a hypothermia 30 minutes after injection (mouse [6]; intraperitoneal route): 1 mg/kg | action on the rectal temperature (in words) (mouse [6]; oral route): substantially the same as when applied intraperitoneally | dose still causing a hypothermia (mouse [6]; oral route): 4 mg/kg | signs observed with toxic dosages (mouse [7]; intraperitoneal route): general syndrome of excitation | LD50 of amphetamine ([5]; amphetamine alone): 17.8 mg/kg | LD50 of amphetamine ([5]; with TRH at 25 mg/kg by subcutaneous application): 5.7 mg/kg

CC(Cc1ccccc1)NC(=O)C1CCC(=O)N1 (centres unmarked) [pGlu-Amph, pGlu--Amph]
induction of stereotype movements (in words) (rat; intraperitoneal route): completely identical with that of amphetamine | effect versus that produced by the equivalent amphetamine dose (rat; intraperitoneal route, dose transformed into contained amphetamine): almost identical or is slightly smaller | doses versus doses of amphetamine producing a similar/equivalent effect (rat; oral route): practically equivalent | action on the rectal temperature (in words) (mouse [6]; intraperitoneal route): very close to that of amphetamine | dose from which a hyperthermia appears (mouse [6]; intraperitoneal route): ≥ 10 mg/kg | period of the action compared with amphetamine (mouse [6]; intraperitoneal route): the same | time of the maximum of the hyperthermia (mouse [6]; intraperitoneal route): 60 min | dose causing a hypothermia 30 minutes after injection (mouse [6]; intraperitoneal route): 5 mg/kg | action on the rectal temperature (in words) (mouse [6]; oral route): modelled on that of the amphetamine | dosage causing mortality of 50% (LD50) (mouse [7]; intraperitoneal route): about 40 mg/kg | signs observed with toxic dosages (mouse [7]; intraperitoneal route): general syndrome of excitation | mortality (in words) (mouse [7]; oral route, 30 mg/kg): does not cause any death | mortality (mouse [7]; oral route, 100 mg/kg): 100%

CC(Cc1ccccc1)NC(=O)[C@@H]1CCCN1C(=O)[C@H](Cc1c[nH]cn1)NC(=O)[C@@H]1CCC(=O)N1 (stereo partly drawn) [pGlu-His-Pro-Amph, pGlu--His--Pro--Amph]
mortality (mouse [7]; oral route, 1000 mg/kg): 25% | time to death (mouse [7]; oral route, 1000 mg/kg): 48 h

pGlu--His--Amph [pGlu-His-Amph]
duration of action in the stereotyped movements test versus amphetamine (summary) (rat; in vivo): much longer lasting action | dosage of contained amphetamine versus dosage of amphetamine causing an equal intensity of stereotypes (rat; intraperitoneal route): three times greater | induction of stereotype movements (in words) (rat; intraperitoneal route): also causes stereotypes | duration of the stereotype movements (rat; intraperitoneal route, strongest dosage): exceeds 7 hours | duration of the stereotyped movements (rat; oral route): 271/2 | induction of stereotype movements (in words) (rat; oral route): much greater effect as regards intensity and duration than when applied intraperitoneally | time the action takes to appear (rat; oral route): about 3 hours | time of the maximum of the hypothermia (mouse [6]; intraperitoneal administration): 1 h | action on the rectal temperature (in words) (mouse [6]; intraperitoneal route): always produces a hypothermia | dose from which a hyperthermia appears (mouse [6]; intraperitoneal route): above 50 mg/kg | time of the maximum of the hyperthermia (mouse [6]; intraperitoneal route): approximately 3 hours | action on the rectal temperature (in words) (mouse [6]; oral route): always causes a hypothermia followed by a hyperthermia proportional to the administered dose | time of the maximum of the hypothermia (mouse [6]; oral route): 2 h | toxicity versus amphetamine (summary) (mouse [7]; in vivo): less than that of amphetamine | mortality (mouse [7]; [9]): 10% | time after which agitation is established (mouse [7]; [9]): 30 min | dead mice (mouse [7]; [10]): 6 mice out of 10 | time to death (mouse [7]; [10]): less than 30 minutes | time to death (mouse [7]; intraperitoneal route, 800 mg/kg): less than 3 min | duration of stereotypic movements observed in the toxicity study (mouse [7]; oral route): more than 24 hours | mice dead (mouse [7]; oral route, 2400 mg/kg): 50% | immediate death (mouse [7]; oral route, even with 2400 mg/kg): no longer observed

pGlu--His--DA [pGlu-His-dopamine]
delay in the occurrence of the jumping effects versus L-DOPA (mouse [1]): greater | total number of jumps recorded versus L-DOPA (mouse [1]): smaller than that with L-DOPA | jumping effects (in words) (mouse [1]): the same as with L-DOPA | behavioural effect in amphetamine group toxicity test (in words) (mouse [2]): identical with those of dopamine | action on the effects of reserpine (temperature, ptosis) (mouse [3]; 400 mg/kg intraperitoneally): slightly counteracts simultaneously the ptosis and the fall in temperature | duration of the anti-reserpine action (mouse [3]; 400 mg/kg intraperitoneally): less than 11/2 | time of onset of the antioxotremorine action [8]: 15 min | action on the rectal temperature (in words) (mouse [4]): highly significant hypothermia | time of occurrence of the hypothermia (mouse [4]; relatively high dosage): 15 min
